Experimental data published in ChEMBL document CHEMBL1127138, “2-substituted penems, new candidates for cephalosporinase inhibitors” (Bioorg Med Chem Lett, 1993).

Columns and labels:
[1] = Tested for the inhibitory activity against beta-lactamase type CTX-1 at dose of 10 ug/mL using substrate cephaloridine (CER); (CTX-1 enzyme activity is 0.7363 U/ml)
[2] = target: TEM-1 beta-lactamase (Escherichia coli) (UniProt P62593); experiment: Tested for the inhibitory activity against beta-lactamase type TEM-1 at dose of 0.1 ug/mL using substrate ampicillin (ABPC); (TEM-1 enzyme activity is 1.6328 U/mL)
[3] = target: TEM-1 beta-lactamase (Escherichia coli) (UniProt P62593); experiment: Tested for the inhibitory activity against beta-lactamase type TEM-1 at dose of 10 ug/mL using substrate ampicillin (ABPC)
[4] = target: Beta-lactamase (Enterobacter cloacae) (UniProt P05364); experiment: Tested for the inhibitory activity against beta-lactamase, Enterobacter cloacae at dose of 0.1 ug/mL using substrate cephaloridine (CER)
[5] = target: Beta-lactamase (Pseudomonas aeruginosa (strain ATCC 15692 / PAO1 / 1C / PRS 101 / LMG12228)) (UniProt P24735); experiment: Tested for the inhibitory activity against beta-lactamase, Pseudomonas aeruginosa at dose of 10 ug/mL using substrate cephaloridine (CER); (P. Aeruginosa enzyme activity is 1.0352 U/ml)
[6] = target: Beta-lactamase (Enterobacter cloacae) (UniProt P05364); experiment: Tested for the inhibitory activity against beta-lactamase, Enterobacter cloacae at dose of 10 ug/mL using substrate cephaloridine (CER); (E. Cloacae enzyme activity is 1.1517 U/ml)
[7] = target: TEM-1 beta-lactamase (Escherichia coli) (UniProt P62593); experiment: Tested for the inhibitory activity against beta-lactamase type TEM-1 at dose of 0.66 ug/mL using substrate ampicillin (ABPC); (TEM-1 enzyme activity is 1.6328 U/mL)
[8] = target: Beta-lactamase (Pseudomonas aeruginosa (strain ATCC 15692 / PAO1 / 1C / PRS 101 / LMG12228)) (UniProt P24735); experiment: Tested for the inhibitory activity against beta-lactamase, Pseudomonas aeruginosa at dose of 0.66 ug/mL using substrate cephaloridine (CER); (P. Aeruginosa enzyme activity is 1.0352 U/ml)
[9] = target: Beta-lactamase (Enterobacter cloacae) (UniProt P05364); experiment: Tested for the inhibitory activity against beta-lactamase, Enterobacter cloacae at dose of 0.66 ug/mL using substrate cephaloridine (CER)
[10] = Tested for the inhibitory activity against beta-lactamase type CTX-1 at dose of 0.66 ug/mL using substrate cephaloridine (CER); (CTX-1 enzyme activity is 0.7363 U/ml)
[11] = target: Beta-lactamase (Enterobacter cloacae) (UniProt P05364); experiment: Tested for the inhibitory activity against beta-lactamase, Enterobacter cloacae at dose of 0.66 ug/mL using substrate cephaloridine (CER); (E. Cloacae enzyme activity is 1.1517 U/ml)

Sequence of TEM-1 beta-lactamase (Escherichia coli) (P62593 whole entry, looked up): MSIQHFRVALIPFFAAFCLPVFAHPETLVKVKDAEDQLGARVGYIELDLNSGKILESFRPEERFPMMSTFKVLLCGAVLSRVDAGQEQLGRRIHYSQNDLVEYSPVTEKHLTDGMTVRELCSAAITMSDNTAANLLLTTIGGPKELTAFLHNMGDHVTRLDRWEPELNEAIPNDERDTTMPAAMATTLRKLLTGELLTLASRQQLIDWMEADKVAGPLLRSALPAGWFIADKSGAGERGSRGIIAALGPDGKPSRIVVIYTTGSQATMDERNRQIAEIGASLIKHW
Sequence of Beta-lactamase (Enterobacter cloacae) (P05364 21-381 limits assumed): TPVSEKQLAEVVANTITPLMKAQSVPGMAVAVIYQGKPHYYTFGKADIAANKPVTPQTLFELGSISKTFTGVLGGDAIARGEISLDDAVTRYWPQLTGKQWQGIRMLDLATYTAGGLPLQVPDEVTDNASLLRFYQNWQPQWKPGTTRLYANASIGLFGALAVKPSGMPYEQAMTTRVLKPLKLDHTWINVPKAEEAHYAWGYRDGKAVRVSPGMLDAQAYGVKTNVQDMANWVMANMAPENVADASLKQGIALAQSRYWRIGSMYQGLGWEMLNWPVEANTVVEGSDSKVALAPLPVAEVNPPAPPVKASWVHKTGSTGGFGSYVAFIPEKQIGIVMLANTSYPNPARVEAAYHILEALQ
Sequence of Beta-lactamase (Pseudomonas aeruginosa (strain ATCC 15692 / PAO1 / 1C / PRS 101 / LMG12228)) (P24735 27-397 limits assumed): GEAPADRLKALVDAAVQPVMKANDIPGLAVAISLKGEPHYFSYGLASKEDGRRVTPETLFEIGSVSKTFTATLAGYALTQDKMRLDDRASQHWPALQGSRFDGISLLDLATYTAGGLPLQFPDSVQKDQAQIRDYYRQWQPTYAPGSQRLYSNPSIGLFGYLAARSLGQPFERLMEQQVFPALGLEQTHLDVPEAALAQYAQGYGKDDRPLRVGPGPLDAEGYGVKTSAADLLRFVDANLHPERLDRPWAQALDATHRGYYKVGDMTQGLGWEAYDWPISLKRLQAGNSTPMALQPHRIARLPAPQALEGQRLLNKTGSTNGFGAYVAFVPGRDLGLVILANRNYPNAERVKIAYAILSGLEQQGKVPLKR

inhibition [1] | inhibition [2] | inhibition [3] | inhibition [4] | inhibition [5] | inhibition [6] | inhibition [7] | inhibition [8] | inhibition [9] | inhibition [10] | inhibition [11] | SMILES
19% | 2% | 28% | 10% | 16% | 45% | – | – | – | – | – | Cn1nnnc1SC1=C(C(=O)OC(c2ccccc2)c2ccccc2)N2C(=O)C[C@H]2S1
– | – | – | – | – | – | 6% | 0% | 8% | 12% | 14% | Cc1nnc(SC2=C(C(=O)OC(c3ccccc3)c3ccccc3)N3C(=O)C[C@H]3S2)s1
